# Source: patent US4792568A, “Aryl pyrroles as useful antiallergy compounds” (Rorer Pharmaceutical Corporation, priority 1986, dated 1988)
# What was measured:
# 5-lipoxygenase = biological target: T1, 5-lipoxygenase (Rattus norvegicus, UniProt P12527); experiment: Inhibition of 5-lipoxygenase (5-HETE formation from [14C]-arachidonic acid in rat neutrophils, Calcium Ionophore A23187); type: cell-based; details: 3 minutes at 30° C.; for IC50: net 5-HETE, read-out: concentration required for inhibition of the 5-lipoxygenase (5-LOX/I50)
# T1 construct: A suspension of rat neutrophils in buffer; endogenous in cells; host or cells: rat neutrophils
# T1 sequence (P12527 1-673): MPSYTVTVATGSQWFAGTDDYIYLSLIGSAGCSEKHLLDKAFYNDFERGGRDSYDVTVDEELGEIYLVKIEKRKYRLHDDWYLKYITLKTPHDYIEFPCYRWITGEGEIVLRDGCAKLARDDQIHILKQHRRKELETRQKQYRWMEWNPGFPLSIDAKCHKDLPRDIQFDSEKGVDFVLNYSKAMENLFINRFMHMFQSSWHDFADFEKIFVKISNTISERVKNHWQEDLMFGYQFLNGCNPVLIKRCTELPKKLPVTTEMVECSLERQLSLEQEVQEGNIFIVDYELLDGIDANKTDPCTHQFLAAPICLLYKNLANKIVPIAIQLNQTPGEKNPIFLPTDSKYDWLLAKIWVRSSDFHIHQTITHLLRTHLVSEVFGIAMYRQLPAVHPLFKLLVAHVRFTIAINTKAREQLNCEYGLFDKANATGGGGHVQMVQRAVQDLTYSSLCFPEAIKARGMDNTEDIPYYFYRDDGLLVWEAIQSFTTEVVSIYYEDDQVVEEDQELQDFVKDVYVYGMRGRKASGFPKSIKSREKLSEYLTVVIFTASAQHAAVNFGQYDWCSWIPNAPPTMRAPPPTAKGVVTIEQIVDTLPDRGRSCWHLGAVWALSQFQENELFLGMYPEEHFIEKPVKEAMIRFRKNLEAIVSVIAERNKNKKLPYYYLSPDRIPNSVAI
# Method: The following protocol describes an assay to detect inhibitors of the lipoxygenase. Such inhibitors are believed to be capable of modulating the biosynthesis of the leukotrienes, a property believed to be useful in treating asthma and inflammatory disease states.
# A suspension of rat neutrophils in buffer is incubated for 3 minutes at 30° C. with [^14 C]-arachidonic acid (AA) and Calcium Ionophore A23187. Citric acid (2M) is used to quench the reaction. Following the addition of a trace amount of (^3 H)-5-HETE together with an excess of unlabeled 5-HETE to each tube, the mixture is extracted with chloroform/methanol. The organic layer is washed wth dilute acid and an aliquot is transferred to glass tubes and dried. The residue is dissolved in a small volume of chloroform and an aliquot is spotted on silica gel TLC sheets, which are developed with an ethyl acetate/isooctane/water/acetic acid solvent system. The 5-HETE spots are visualized with iodine, cut out and placed in scintillation vials for counting. After adjusting for the extraction efficiency, the amount (pmole) of [^14 C]-5-HETE in each of the tubes is quantitated. The net pmoles of 5-HETE are obtained by subtracting the pmoles of 5-HETE in the tubes containing buffer alone (blank) from the pmoles of 5-HETE in the tubes containing […]. The ability of the test compounds to modulate the activity of this enzyme is determined by a decrease or increase in the net amount of 5-HETE produced.
# [1] = tested on: leukotriene C4-induced contraction of guinea pig peripheral strips; experiment: SRS-A antagonists (SALTI): inhibition of leukotriene C4-induced contraction of guinea pig peripheral lung strips; type: cell-based; details: 0.2 nM leukotriene C4, 37° C.; for IC50: Cavia porcellus, read-out: concentration required for 50% inhibition of leukotriene C4-induced contraction (I50)
# Method: Peripheral strips of guinea pig lungs are prepared and hung in tissue baths (Metro #ME-5505, 10 ml) according to the published procedure (Pro. Nat'l. Acad. Sci., U.S.A. Volume 77, pp. 4354-4358, 1980). The strips are thoroughly rinsed in Assay Buffer and then connected with surgical silk thread to the support rods from the tissue baths. The rods are adjusted in the baths and the strips connected to the pressure transducers (Grass FT 103 or Gould UC-3--. The tissue baths are aerated with 95% oxygen-5% carbon dioxide and maintained at 37° C. The Assay Buffer has been made as follows:
# For each liter of buffer the following are added to approximately 800 ml of water distilled in glass: 6.87 g NaCl, 0.4 g KCl, […] NaHCO3, 0.14 g NaH2 PO4 H2 O, 0.21 g MgSO4 7H2 O, and 2.0 g D-glucose. Tehn a solution of 0.368 g CaCl2 2H2 O in 100 ml glass-distilled water is slowly added to the buffer. Sufficient water is added to adjust the volume to one liter, and the solution is aerated with 95% oxygen--5% carbon dioxide. Usually 10 liters of buffer are used for an experiment with 4 tissues.
# After the tissues have been repeatedly washed and allowed to equilibrate in the tissue bath, they are challenged with 1 μM histamine. After maximum contractions have been obtained, the tissues are washed, and allowed to relax back to baseline tension. This histamine challenge procedure is repeated at least 1 to 2 more times ot obtain a repeatable control response. The average response to 1 μM histamine for each tissue is used to normalize all other challenges.
# Responses of each tissue to a predetermined concentration of leukotriene are then obtained. Usually test compounds are examined initially at 30 μM on resting tension of the tissues without any added agonist or antagonist to determine if the compound has any possible intrinsic activity. The tissues are washed, and the test compound is added again. Leukotriene is added after the desired pre-incubation time. The intrinsic activity of the compounds and their effect on leukotriene-induced contractions are then recorded.
# The concentration required for 50% inhibition of 0.2 nM leukotriene C4 -induced contraction of guinea pig peripheral strips for the compounds of the Examples 1 to 6 is as follows: […]
Compound,IC50 (5-lipoxygenase) [µM],relative activity at 10 μM (5-lipoxygenase inhibition) (5-lipoxygenase),IC50 [1] [µM],concentration required for 50% inhibition of leukotriene C4-induced contraction (I50) [1]
"O=Cc1cccn1-c1cccc(Oc2ccccc2)c1 [Example 1, 1-(3-Phenoxyphenyl)-pyrrole-2-aldehyde]",,medium,20,
"CCCCCC(O)c1cccn1-c1ccccc1 (stereo not shown) [Example 5, 2-(1-Hydroxyhexyl)-1-phenylpyrrole]",20,,,Inactive
"O=Cc1ccn(-c2cccc(Oc3ccccc3)c2)c1 [Example 2, 1-(3-Phenoxyphenyl)-pyrrole-3-aldehyde]",,medium,18,

# Second part, led by results:
IC50 (5-lipoxygenase) [µM],relative activity at 10 μM (5-lipoxygenase inhibition) (5-lipoxygenase),IC50 [1] [µM],Compound,concentration required for 50% inhibition of leukotriene C4-induced contraction (I50) [1]
7,,,"CCCCCC(O)c1cccn1-c1cccc(Oc2ccccc2)c1 (stereo not shown) [Example 3, 2-(1-Hydroxyhexyl)-1-(3-phenoxyphenyl)pyrrole]",Inactive
4,,,"CCCCCC(O)c1ccn(-c2cccc(Oc3ccccc3)c2)c1 (stereo not shown) [Example 4, 3-(1-Hydroxyhexyl)-1-(3-phenoxyphenyl)pyrrole]",
,medium,,"CCCCCC(O)c1ccn(-c2ccccc2)c1 (stereo not shown) [Example 6, 3-(1-Hydroxyhexyl)-1-phenylpyrrole]",
